According to PMC8508980, “Design, Synthesis and Anticancer Profile of New 4-(1H-benzo[d]imidazol-1-yl)pyrimidin-2-amine-Linked Sulfonamide Derivatives with V600EBRAF Inhibitory Effect” (International Journal of Molecular Sciences, 2021):

Assays:
[1] = tested on: PC-3; assay: NCI 60 cell line screen; assay type: cell-based, human; details: for activity at 10 µM: Homo sapiens, PC-3, Prostate Cancer, read-out: Percent growth
Protocol: (§1) Anticancer profiling over a panel of 60 cancer cell lines was carried out at the National Cancer Institute (NCI), Bethesda, Maryland, USA, https://dtp.cancer.gov/discovery_development/nci-60/methodology.htm (Last visit 22 September 2021), using the standard procedure (detailed procedure is located in the Supplementary Information page 50 s).
(§2) NCI standard procedure for 60 cell lines assay
(§3) The human tumor cell lines of the cancer screening panel are grown in RPMI 1640 mediu m containing 5% fetal bovine serum and 2 mM L-glutamine. For a typical screening experiment, cells are inoculated into 96 well microtiter plates in 100 μL at plating densities ranging from 5,000 to 40,000 cells/well depending on the doubling time of individual cell lines. After cell inoculation, the microtiter plates are incubated at 37° C, 5 % CO2, 95 % air and 100 % relative humidity for 24 h prior to addition of experimental drugs.
(§4) After 24 h, two plates of each cell line are fixed in situ with TCA, to represent a measurement of the cell population for each cell line at the time of drug addition (Tz). Experimental drugs are solubilized in dimethyl sulfoxide at 400-fold the desired final maximum test concentration (10 µM) and stored frozen prior to use. At the time of drug addition, an aliquot of frozen concentrate is thawed and diluted to twice the desired final maximum test concentration with co mp lete medium containing 50 μg/ml gentamicin. Additional four, 10-fold or ½ log serial dilutions are made to provide a total of five drug concentrations plus control. Aliquots of 100 μl of these different drug dilutions are added to the appropriate microtiter wells already containing 100 μl of medium, resulting in the required final drug concentrations.
(§5) Following drug addition, the plates are incubated for an additional 48 h at 37°C, 5 % CO2, 95 % air, and 100 % relative humidity. For adherent cells, the assay is terminated by the addition of cold TCA. Cells are fixed in situ by the gentle addition of 50 μl of cold 50 % (w/v) TCA (final concentration, 10 % TCA) and incubated for 60 minutes at 4°C. The supernatant is discarded, and the plates are washed five times with tap water and air dried. Sulforhodamine B (SRB) solution (100 μl) at 0.4 % (w/v) in 1 % acetic acid is added to each well, and plates are incubated for 10 minutes at room temperature. After staining, unbound dye is removed by washing five times with 1 % acetic acid and the plates are air dried. Bound stain is subsequently solubilized with 10 mM trizma base, and the absorbance is read on an automated plate reader at a wavelength of 515 nm. For suspension cells, the methodology is the same except that the assay is terminated by fixing settled cells at the bottom of the wells by g ently adding 50 μl of 80 % TCA (final concentration, 16 % TCA). Using the seven absorbance measurements [time zero, (Tz), control growth, (C), and test growth in the presence of drug at the five concentration levels (Ti)], the percentage growth is calculated at each of the drug concentrations levels. Percentage growth inhibition is calculated as:
(§6) [(Ti-Tz)/(C-Tz)] x 100 for concentrations for which Ti>/=Tz
(§7) [(Ti-Tz)/Tz] x 100 for concentrations for which Ti<Tz.
(§8) Three dose response parameters are calculated for each experimental agent. Growth inhibition of […]
(§9) resulting in a 50% reduction in the net protein increase (as measured by SRB staining) in control cells during the drug incubation. The drug concentration resulting in total growth inhibition […]
(§10) (TGI) is calculated from Ti = Tz.

[2] = tested on: HT29; assay: NCI 60 cell line screen; assay type: cell-based, human; details: Homo sapiens, HT-29; HT29, Colon Cancer; read-out: Percent growth
Protocol: as §1, §2, §3, §4, §5, §6, §7, §8, §9, §10

[3] = tested on: K-562; assay: NCI 60 cell line screen; assay type: cell-based, human; details: Homo sapiens, K562; K-562, Leukemia; read-out: Percent growth
Protocol: as §1, §2, §3, §4, §5, §6, §7, §8, §9, §10

[4] = tested on: SF-295; assay: NCI 60 cell line screen; assay type: cell-based, human; details: for activity at 10 µM: Homo sapiens, SF-295, CNS-Cancer, read-out: Percent growth
Protocol: as §1, §2, §3, §4, §5, §6, §7, §8, §9, §10

[5] = tested on: CAKI-1; assay: NCI 60 cell line screen; assay type: cell-based, human; details: Homo sapiens; CAKI-1, Renal Cancer; read-out: Percent growth
Protocol: as §1, §2, §3, §4, §5, §6, §7, §8, §9, §10

[6] = tested on: RXF 393; assay: NCI 60 cell line screen; assay type: cell-based, human; details: Homo sapiens; RXF 393, Renal Cancer; read-out: Percent growth
Protocol: as §1, §2, §3, §4, §5, §6, §7, §8, §9, §10

[7] = tested on: U251; assay: NCI 60 cell line screen; assay type: cell-based, human; details: for activity at 10 µM: Homo sapiens, U-251, U251, CNS-Cancer, read-out: Percent growth
Protocol: as §1, §2, §3, §4, §5, §6, §7, §8, §9, §10

[8] = tested on: RPMI-8226; assay: NCI 60 cell line screen; assay type: cell-based, human; details: for activity at 10 µM: Homo sapiens, RPMI-8226, Leukemia, read-out: Percent growth; for percent inhibition: RPMI-8226, NCI-60 heat map analysis
Protocol: as §1, §2, §3, §4, §5, §6, §7, §8, §9, §10

[9] = tested on: HOP-92; assay: NCI 60 cell line screen; assay type: cell-based, human; details: for activity at 10 µM: Homo sapiens, HOP-92, Non-Small Cell Lung Cancer, read-out: Percent growth; for percent inhibition: HOP-92, NCI-60 heat map analysis
Protocol: as §1, §2, §3, §4, §5, §6, §7, §8, §9, §10

[10] = tested on: SK-MEL-5; assay: NCI 60 cell line screen; assay type: cell-based, human; details: for activity at 10 µM: Homo sapiens, SK-MEL-5, Melanoma, read-out: Percent growth; for percent inhibition: SK-MEL-5, NCI-60 heat map analysis
Protocol: as §1, §2, §3, §4, §5, §6, §7, §8, §9, §10

[11] = tested on: NCI-H460; assay: NCI 60 cell line screen; assay type: cell-based, human; details: for activity at 10 µM: Homo sapiens, NCI-H460, Non-Small Cell Lung Cancer, read-out: Percent growth
Protocol: as §1, §2, §3, §4, §5, §6, §7, §8, §9, §10

[12] = tested on: SK-MEL-5 cells; assay: Antiproliferative MTT assay; assay type: cell-based; details: Homo sapiens, 48 h, mean ± S.D. of two experiments
Protocol: (§11) The effect of final target compounds over A375 and SK-MEL-5 was performed using reported procedures (detailed procedure is located in the Supplementary Information page 51s). […]
(§12) Evaluation of the Antiproliferative Activity Against A375 and SK-MEL-5
(§13) A375 and SK-MEL-5 cells were purchased from American Type Culture Collection (ATCC, Ro ckv ille, MD, USA) and maintained in Dulbecco’s modified eagle medium (DMEM, Welgene, Daegu, Republic of Korea) supplemented with 10% fetal bovine serum (FBS, Welgene, Daegu, Republic of Korea) and 1% penicillin/streptomycin (Welgene, Daegu, Republic of Korea) in a hu midified atmo sphere with 5% CO2 at 37 °C. Both cells were taken from culture substrate with 0.05% trypsin-0.02% EDTA and plated at a density of 5 × 10^3 cells/well in 96 well plates and then incubated at 37 °C fo r 24 h in a hu midified atmo sphere with 5% CO2 prior to treatment with various concentrations (3-fold serial dilution, 12 points) of the tested compounds. The cells were incubated for 48 h after treatment with the test compounds. The cell viability was assessed by the conventional 3-(4,5-dimethylthiazol-2-yl)-2,5-diphenyltetrazolium bromide (MTT) reduction assay. MTT assays were carried out with CellTiter 96® (Promega) according to the manufacturer’s instructions. The absorbance at 590 nm was recorded using EnVision 2103 (Perkin Elmer; Bo ston , MA, USA). The IC50 values were calculated using GraphPad Prism 4.0

[13] = tested on: A375 cells; assay: Antiproliferative MTT assay; assay type: cell-based; details: Homo sapiens, A-375, 48 h, mean ± S.D. of two experiments
Protocol: as §11, §12, §13

| SMILES | activity at 10 µM [1] | activity at 10 µM [2] | activity at 10 µM [3] | activity at 10 µM [4] | activity at 10 µM [5] | activity at 10 µM [6] | activity at 10 µM [7] | activity at 10 µM [8] | activity at 10 µM [9] | activity at 10 µM [10] | activity at 10 µM [11] | IC50 [12] | IC50 [13] | percent inhibition ([1]; PC-3, NCI-60 heat map analysis) | percent inhibition ([4]; SF-295, NCI-60 heat map analysis) | percent inhibition ([7]; U251, NCI-60 heat map analysis) | percent inhibition [8] | percent inhibition [9] | percent inhibition [10] | percent inhibition ([11]; NCI-H460, NCI-60 heat map analysis) |
| --- | --- | --- | --- | --- | --- | --- | --- | --- | --- | --- | --- | --- | --- | --- | --- | --- | --- | --- | --- | --- |
| O=S(=O)(NCCNc1nccc(-n2cnc3ccccc32)n1)c1ccccc1 [12a, N-(2-((4-(1H-benzo [d]imidazol-1-yl)pyrimidin-2-yl)amino)ethyl)benzenesulfonamide] | 93.5% | 102% | 84.8% | 97.3% | 83.7% | 113% | 103% | 84.9% | 73.3% | 95.8% | 103% | 20.4 ± 0.86 µM | 12.8 ± 0.41 µM | – | – | – | – | – | – | – |
| O=S(=O)(NCCNc1nccc(-n2cnc3ccccc32)n1)c1ccc(F)cc1 [12b, N-(2-((4-(1H-benzo [d]imidazol-1-yl)pyrimidin-2-yl)amino)ethyl)-4-fluorobenzenesulfonamide] | 91.3% | 94.4% | 84% | 93.6% | 82% | 106% | 99.5% | 73.6% | 82.3% | 78% | 96.3% | 15.6 ± 0.37 µM | 10.5 ± 0.22 µM | – | – | – | – | – | – | – |
| O=S(=O)(NCCNc1nccc(-n2cnc3ccccc32)n1)c1ccc(Cl)cc1 [12c, N-(2-((4-(1H-benzo [d]imidazol-1-yl)pyrimidin-2-yl)amino)ethyl)-4-chlorobenzenesulfonamide] | 103% | 103% | 97.6% | 96.7% | 87.4% | 117% | 102% | 99.4% | 90.2% | 99.4% | 103% | 17.6 ± 0.49 µM | 11 ± 0.36 µM | – | – | – | – | – | – | – |
| O=S(=O)(NCCNc1nccc(-n2cnc3ccccc32)n1)c1ccc(Br)cc1 [12d, N-(2-((4-(1H-benzo [d]imidazol-1-yl)pyrimidin-2-yl)amino)ethyl)-4-bromobenzenesulfonamide] | 93.8% | 97.2% | 88.4% | 96.5% | 81.5% | 101% | 98.6% | 79.8% | 74.2% | 89.1% | 101% | 19.7 ± 0.51 µM | 11.8 ± 0.71 µM | – | – | – | – | – | – | – |
| O=S(=O)(NCCNc1nccc(-n2cnc3ccccc32)n1)c1ccc(C(F)(F)F)cc1 [12e, N-(2-((4-(1H-benzo [d]imidazol-1-yl)pyrimidin-2-yl)amino)ethyl)-4-(trifluoromethyl)benzenesulfonamide] | 45.5% | 68% | 40.8% | 44.7% | 43.1% | 38.2% | 42.4% | 44.9% | 54.5% | 8.48% | 57.8% | 6.54 ± 0.18 µM | 2.89 ± 0.14 µM | 55% | more than 50% | more than 50% | 55% | around 40% | 91% | around 40% |
| COc1ccc(S(=O)(=O)NCCNc2nccc(-n3cnc4ccccc43)n2)cc1 [12f, N-(2-((4-(1H-benzo [d]imidazol-1-yl)pyrimidin-2-yl)amino)ethyl)-4-methoxy benzenesulfonamide] | 97.5% | 100% | 93% | 97% | 79.6% | 94.6% | 103% | 94% | 75.4% | 92.2% | 106% | 18.7 ± 0.69 µM | 12.6 ± 0.44 µM | – | – | – | – | – | – | – |
| Cc1ccc(S(=O)(=O)NCCNc2nccc(-n3cnc4ccccc43)n2)cc1 [12g, N-(2-((4-(1H-benzo [d]imidazol-1-yl)pyrimidin-2-yl)amino)ethyl)-4-methyl benzenesulfonamide] | 76.1% | 90.2% | 56.1% | 75.5% | 57.5% | 55.4% | 85.2% | 52.5% | 57.9% | 20.8% | 79% | 8.25 ± 0.12 µM | 7.22 ± 0.23 µM | – | – | – | around 45% | around 40% | 80% | – |
| O=S(=O)(NCCCNc1nccc(-n2cnc3ccccc32)n1)c1ccccc1 [12h, N-(3-((4-(1H-benzo [d]imidazol-1-yl)pyrimidin-2-yl)amino)propyl)benzenesulfonamide] | 89.2% | 101% | 79.5% | 92.5% | 87.4% | 110% | 98.2% | 74.3% | 84.8% | 60.2% | 96.9% | 11.3 ± 0.29 µM | 9.26 ± 0.16 µM | – | – | – | – | – | 40% | – |
